Measurements: patent US6518243B1, “Desleucyl glycopeptide antibiotics and methods of making same” (Trustees of Princeton University, priority 1999, dated 2003)

Key:
S. aureus (ATCC 29213) = assay: Zone of inhibition screen, 96 well agar array format; assay type: cell-based; set-up: scale not given here
Outline: (§1)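 Panel screening of every compound against several bacterial strains, among them E. faecium ATCC 49624, was done in a 96-well agar array.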

E. faecalis (CL 4877) = assay: as above; assay type: cell-based; set-up: scale not given here
Outline: as §1

[1] = zone of inhibition relative to 1 mg/ml p-chlorobiphenylvancomycin
[2] = zone of inhibition relative to 1 mg/ml stock solution of p-chlorobiphenylvancomycin

| SMILES | zone score, S. aureus ATCC 29213 (S. aureus (ATCC 29213); [1]) | zone score, E. faecalis CL 4877 (E. faecalis (CL 4877); [1]) | zone score, S. aureus ATCC 29213 (S. aureus (ATCC 29213); [2]) | zone score, E. faecalis CL 4877 (E. faecalis (CL 4877); [2]) |
| --- | --- | --- | --- | --- |
| CC1OC(OC2C(Oc3c4cc5cc3Oc3ccc(cc3Cl)C(O)C3NC(=O)C(NC(=O)C5NC(=O)C(CC(N)=O)NC(=O)C(NC(=O)c5ccc(=O)oc5)C(O)c5ccc(c(Cl)c5)O4)c4ccc(O)c(c4)-c4c(O)cc(O)cc4C(C(=O)O)NC3=O)OC(CO)C(O)C2O)CC(C)(NCc2ccc(-c3ccc(Cl)cc3)cc2)C1O (stereo not shown) [Compound 282] | 2 | 2 |  |  |
| CC1OC(OC2C(Oc3c4cc5cc3Oc3ccc(cc3Cl)C(O)C3NC(=O)C(NC(=O)C5NC(=O)C(CC(N)=O)NC(=O)C(NC(=O)C=CC(=O)NC(N)=O)C(O)c5ccc(c(Cl)c5)O4)c4ccc(O)c(c4)-c4c(O)cc(O)cc4C(C(=O)O)NC3=O)OC(CO)C(O)C2O)CC(C)(NCc2ccc(-c3ccc(Cl)cc3)cc2)C1O (stereo not shown) [Compound 189] |  |  | 2 | 2 |
| COc1ccc(C(=O)NC2C(=O)NC(CC(N)=O)C(=O)NC3C(=O)NC4C(=O)NC(C(=O)NC(C(=O)O)c5cc(O)cc(O)c5-c5cc4ccc5O)C(O)c4ccc(c(Cl)c4)Oc4cc3cc(c4OC3OC(CO)C(O)C(O)C3OC3CC(C)(NCc4ccc(-c5ccc(Cl)cc5)cc4)C(O)C(C)O3)Oc3ccc(cc3Cl)C2O)c(OC)c1 (stereo not shown) [Compound 236] | 2 | 2 |  |  |
| CC(NC(=O)OC(C)(C)C)C(=O)NCC(=O)NCC(=O)NC1C(=O)NC(CC(N)=O)C(=O)NC2C(=O)NC3C(=O)NC(C(=O)NC(C(=O)O)c4cc(O)cc(O)c4-c4cc3ccc4O)C(O)c3ccc(c(Cl)c3)Oc3cc2cc(c3OC2OC(CO)C(O)C(O)C2OC2CC(C)(NCc3ccc(-c4ccc(Cl)cc4)cc3)C(O)C(C)O2)Oc2ccc(cc2Cl)C1O (stereo not shown) [Compound 131] |  |  | 2 | 2 |
| CC1OC(OC2C(Oc3c4cc5cc3Oc3ccc(cc3Cl)C(O)C3NC(=O)C(NC(=O)C5NC(=O)C(CC(N)=O)NC(=O)C(NC(=O)c5cc(C(F)(F)F)cc(C(F)(F)F)c5)C(O)c5ccc(c(Cl)c5)O4)c4ccc(O)c(c4)-c4c(O)cc(O)cc4C(C(=O)O)NC3=O)OC(CO)C(O)C2O)CC(C)(NCc2ccc(-c3ccc(Cl)cc3)cc2)C1O (stereo not shown) [Compound 254] | 2 | 2 |  |  |
| CC(=O)CCCCC(=O)NC1C(=O)NC(CC(N)=O)C(=O)NC2C(=O)NC3C(=O)NC(C(=O)NC(C(=O)O)c4cc(O)cc(O)c4-c4cc3ccc4O)C(O)c3ccc(c(Cl)c3)Oc3cc2cc(c3OC2OC(CO)C(O)C(O)C2OC2CC(C)(NCc3ccc(-c4ccc(Cl)cc4)cc3)C(O)C(C)O2)Oc2ccc(cc2Cl)C1O (stereo not shown) [Compound 278] | 2 | 2 |  |  |
| CC1OC(OC2C(Oc3c4cc5cc3Oc3ccc(cc3Cl)[C@@H](O)[C@@H](NC(=O)[C@@H](CCCNC(=N)N)NC(N)=O)C(=O)N[C@@H](CC(N)=O)C(=O)N[C@H]5C(=O)NC3C(=O)N[C@H](C(=O)N[C@@H](C(=O)O)c5cc(O)cc(O)c5-c5cc3ccc5O)[C@H](O)c3ccc(c(Cl)c3)O4)OC(CO)C(O)C2O)CC(C)(NCc2ccc(-c3ccc(Cl)cc3)cc2)C1O (stereo partly shown) [Compound 187] |  |  | 2 | 2 |
| CC1OC(OC2C(Oc3c4cc5cc3Oc3ccc(cc3Cl)C(O)C3NC(=O)C(NC(=O)C5NC(=O)C(CC(N)=O)NC(=O)C(NC(=O)c5ccc(=O)[nH]n5)C(O)c5ccc(c(Cl)c5)O4)c4ccc(O)c(c4)-c4c(O)cc(O)cc4C(C(=O)O)NC3=O)OC(CO)C(O)C2O)CC(C)(NCc2ccc(-c3ccc(Cl)cc3)cc2)C1O (stereo not shown) [Compound 298] | 2 | 2 |  |  |
| C[C@H]1O[C@H](O[C@H]2[C@H](Oc3c4cc5cc3Oc3ccc(cc3Cl)[C@@H](O)[C@@H](NC(=O)C(N)CC3CCCCC3)C(=O)N[C@@H](CC(N)=O)C(=O)N[C@H]5C(=O)N[C@H]3C(=O)N[C@H](C(=O)N[C@@H](C(=O)O)c5cc(O)cc(O)c5-c5cc3ccc5O)[C@H](O)c3ccc(c(Cl)c3)O4)O[C@H](CO)[C@@H](O)[C@@H]2O)C[C@@](C)(NCc2ccc(-c3ccc(Cl)cc3)cc2)[C@H]1O (stereo partly shown) [Compound 4] |  |  | 2 | 2 |
| CC1OC(OC2C(Oc3c4cc5cc3Oc3ccc(cc3Cl)C(O)C(NC(=O)C(C)(CO)CO)C(=O)NC(CC(N)=O)C(=O)NC5C(=O)NC3C(=O)NC(C(=O)NC(C(=O)O)c5cc(O)cc(O)c5-c5cc3ccc5O)C(O)c3ccc(c(Cl)c3)O4)OC(CO)C(O)C2O)CC(C)(NCc2ccc(-c3ccc(Cl)cc3)cc2)C1O (stereo not shown) [Compound 232] | 2 | 2 |  |  |
| CC(NC(=O)OC(C)(C)C)C(=O)NCC(=O)N(C)CC(=O)NC1C(=O)NC(CC(N)=O)C(=O)NC2C(=O)NC3C(=O)NC(C(=O)NC(C(=O)O)c4cc(O)cc(O)c4-c4cc3ccc4O)C(O)c3ccc(c(Cl)c3)Oc3cc2cc(c3OC2OC(CO)C(O)C(O)C2OC2CC(C)(NCc3ccc(-c4ccc(Cl)cc4)cc3)C(O)C(C)O2)Oc2ccc(cc2Cl)C1O (stereo not shown) [Compound 132] |  |  | 2 | 2 |
| CC=C(N)C(=O)NC1C(=O)NC(CC(N)=O)C(=O)NC2C(=O)NC3C(=O)NC(C(=O)NC(C(=O)O)c4cc(O)cc(O)c4-c4cc3ccc4O)C(O)c3ccc(c(Cl)c3)Oc3cc2cc(c3OC2OC(CO)C(O)C(O)C2OC2CC(C)(NCc3ccc(-c4ccc(Cl)cc4)cc3)C(O)C(C)O2)Oc2ccc(cc2Cl)C1O (stereo not shown) [Compound 219] | 2 | 2 |  |  |
| CC1OC(OC2C(Oc3c4cc5cc3Oc3ccc(cc3Cl)C(O)C3NC(=O)C(NC(=O)C5NC(=O)C(CC(N)=O)NC(=O)C(NC(=O)C5=CC(O)C(O)C(O)C5)C(O)c5ccc(c(Cl)c5)O4)c4ccc(O)c(c4)-c4c(O)cc(O)cc4C(C(=O)O)NC3=O)OC(CO)C(O)C2O)CC(C)(NCc2ccc(-c3ccc(Cl)cc3)cc2)C1O (stereo not shown) [Compound 201] |  |  | 2 | 2 |
| C#CCC(NC(C)=O)C(=O)NC1C(=O)NC(CC(N)=O)C(=O)NC2C(=O)NC3C(=O)NC(C(=O)NC(C(=O)O)c4cc(O)cc(O)c4-c4cc3ccc4O)C(O)c3ccc(c(Cl)c3)Oc3cc2cc(c3OC2OC(CO)C(O)C(O)C2OC2CC(C)(NCc3ccc(-c4ccc(Cl)cc4)cc3)C(O)C(C)O2)Oc2ccc(cc2Cl)C1O (mixture of isomers) [Compound 177] |  |  | 2 | 2 |
| CC(=O)NC(C)C(=O)NC1C(=O)NC(CC(N)=O)C(=O)NC2C(=O)NC3C(=O)NC(C(=O)NC(C(=O)O)c4cc(O)cc(O)c4-c4cc3ccc4O)C(O)c3ccc(c(Cl)c3)Oc3cc2cc(c3OC2OC(CO)C(O)C(O)C2OC2CC(C)(NCc3ccc(-c4ccc(Cl)cc4)cc3)C(O)C(C)O2)Oc2ccc(cc2Cl)C1O (stereo not shown) [Compound 110] |  |  | 2 | 2 |
| CSCCC(NC(C)=O)C(=O)NC1C(=O)NC(CC(N)=O)C(=O)NC2C(=O)NC3C(=O)NC(C(=O)NC(C(=O)O)c4cc(O)cc(O)c4-c4cc3ccc4O)C(O)c3ccc(c(Cl)c3)Oc3cc2cc(c3OC2OC(CO)C(O)C(O)C2OC2CC(C)(NCc3ccc(-c4ccc(Cl)cc4)cc3)C(O)C(C)O2)Oc2ccc(cc2Cl)C1O (stereo not shown) [Compound 115] |  |  | 2 | 2 |
| CC1OC(OC2C(Oc3c4cc5cc3Oc3ccc(cc3Cl)C(O)C3NC(=O)C(NC(=O)C5NC(=O)C(CC(N)=O)NC(=O)C(NC(=O)c5cccnc5Sc5ccc(Cl)cc5)C(O)c5ccc(c(Cl)c5)O4)c4ccc(O)c(c4)-c4c(O)cc(O)cc4C(C(=O)O)NC3=O)OC(CO)C(O)C2O)CC(C)(NCc2ccc(-c3ccc(Cl)cc3)cc2)C1O (stereo not shown) [Compound 230] | 2 | 2 |  |  |
| CC1OC(OC2C(Oc3c4cc5cc3Oc3ccc(cc3Cl)C(O)C3NC(=O)C(NC(=O)C5NC(=O)C(CC(N)=O)NC(=O)C(NC(=O)CNC(=O)c5cccnc5)C(O)c5ccc(c(Cl)c5)O4)c4ccc(O)c(c4)-c4c(O)cc(O)cc4C(C(=O)O)NC3=O)OC(CO)C(O)C2O)CC(C)(NCc2ccc(-c3ccc(Cl)cc3)cc2)C1O (stereo not shown) [Compound 197] |  |  | 2 | 2 |
| CC1OC(OC2C(Oc3c4cc5cc3Oc3ccc(cc3Cl)C(O)C3NC(=O)C(NC(=O)C5NC(=O)C(CC(N)=O)NC(=O)C(NC(=O)C(CCC(N)=O)NC(=O)OC(C)(C)C)C(O)c5ccc(c(Cl)c5)O4)c4ccc(O)c(c4)-c4c(O)cc(O)cc4C(C(=O)O)NC3=O)OC(CO)C(O)C2O)CC(C)(NCc2ccc(-c3ccc(Cl)cc3)cc2)C1O (stereo not shown) [Compound 141] |  |  | 2 | 2 |
| COC(=O)C=CC(=O)NC1C(=O)NC(CC(N)=O)C(=O)NC2C(=O)NC3C(=O)NC(C(=O)NC(C(=O)O)c4cc(O)cc(O)c4-c4cc3ccc4O)C(O)c3ccc(c(Cl)c3)Oc3cc2cc(c3OC2OC(CO)C(O)C(O)C2OC2CC(C)(NCc3ccc(-c4ccc(Cl)cc4)cc3)C(O)C(C)O2)Oc2ccc(cc2Cl)C1O (stereo not shown) [Compound 297] | 2 | 2 |  |  |
| CC1OC(OC2C(Oc3c4cc5cc3Oc3ccc(cc3Cl)C(O)C3NC(=O)C(NC(=O)C5NC(=O)C(CC(N)=O)NC(=O)C(NC(=O)c5c[nH]c(=O)[nH]c5=O)C(O)c5ccc(c(Cl)c5)O4)c4ccc(O)c(c4)-c4c(O)cc(O)cc4C(C(=O)O)NC3=O)OC(CO)C(O)C2O)CC(C)(NCc2ccc(-c3ccc(Cl)cc3)cc2)C1O (stereo not shown) [Compound 208] | 2 | 2 |  |  |
| CC1OC(OC2C(Oc3c4cc5cc3Oc3ccc(cc3Cl)C(O)C3NC(=O)C(NC(=O)C5NC(=O)C(CC(N)=O)NC(=O)C(NC(=O)c5cc(O)cc(O)c5)C(O)c5ccc(c(Cl)c5)O4)c4ccc(O)c(c4)-c4c(O)cc(O)cc4C(C(=O)O)NC3=O)OC(CO)C(O)C2O)CC(C)(NCc2ccc(-c3ccc(Cl)cc3)cc2)C1O (stereo not shown) [Compound 255] | 2 | 2 |  |  |
| CC1OC(OC2C(Oc3c4cc5cc3Oc3ccc(cc3Cl)C(O)C(NC(=O)C(O)C(O)C(O)C(O)CO)C(=O)NC(CC(N)=O)C(=O)NC5C(=O)NC3C(=O)NC(C(=O)NC(C(=O)O)c5cc(O)cc(O)c5-c5cc3ccc5O)C(O)c3ccc(c(Cl)c3)O4)OC(CO)C(O)C2O)CC(C)(NCc2ccc(-c3ccc(Cl)cc3)cc2)C1O (stereo not shown) [Compound 157] |  |  | 2 | 2 |
